In brackets after ≈: the same amount, converted by molar mass. Entries after “also recorded” stand apart in the source; their conditions may differ. Where two headings read alike, the source gives them in different places.
Tests used:
[1] = system: asynchronous 3D7-A10 parasite cultures; test: Standard 72-h exposure asexual blood stage susceptibility assay (IC50^72h); type: cell-based, Plasmodium falciparum; settings: Plasmodium falciparum, 3D7, 72 h, read-out: Overall (72hr assay) Mean IC50 (IC50^72h)
[2] = 1.5 h, 500 μM, pH 7.4
[3] = system: Plasmodium falciparum 3D7-A10 parasites; test: Stage specificity assay (8-h exposure of synchronized stages, IC50^8h); type: cell-based; settings: for IC50: Plasmodium falciparum
[4] = system: 3D7-MR4 trophozoite parasite-infected RBCs; test: Metabolomic profiling (hydrophilic metabolite changes, UHPLC-MS); type: cell-based, Plasmodium falciparum
physchem = settings: pH 7.4, aqueous buffer, kinetic from dmso stock
[5] = 10 × IC50^72h, 2.5 hr, trophozoites

Structure (SMILES): Clc1ccc2c(N3CCN(CCCN4CCN(c5ccnc6cc(Cl)ccc56)CC4)CC3)ccnc2c1 [Piperaquine, reference compound]
- IC50 [1]: 15.4 nM
- Ratio fil./std. (absorbance filtrate/standard) [2]: 0.69
- Ratio lowest IC50 8hr/IC50 72hr ([3]; 3D7-A10): 1.7
- overall activity profile (stages on which active) ([3]; 8-h exposures): activity on all stages
- IC50 ([3]; 3D7, read-out: Early rings Mean IC50 (IC50^8h), 8-h exposure 0–8 hr, 3D7-A10, survival at 60 h): 26.2 nM
- IC50 ([3]; 3D7, read-out: Early trophozoites Mean IC50 (IC50^8h), 8-h exposure 16–24 hr, 3D7-A10, survival at 60 h): 27.4 nM
- IC50 ([3]; 3D7, read-out: Late rings Mean IC50 (IC50^8h), 8-h exposure 8–16 hr, 3D7-A10, survival at 60 h): 46.3 nM
- IC50 ([3]; 3D7, read-out: Late trophozoites Mean IC50 (IC50^8h), 8-h exposure 24–32 hr, 3D7-A10, survival at 60 h): 32.9 nM
- IC50 ([3]; 3D7, read-out: Schizonts Mean IC50 (IC50^8h), 8-h exposure 32–40 hr, 3D7-A10, survival at 60 h): 67 nM
- IC50^8h relative to IC50^72h value ([3]; most susceptible stages): ≤ 2 fold
- Stage of peak activity (Figure 6) ([3]; period when the parasite was most susceptible (lowest IC50^8h)): ring and trophozoite stages; also recorded: rings and trophozoites
- changes within the set of metabolites detected (low fold change group) [4, 5]: did not induce major changes
- decreased levels of dCDP, dTMP, guanosine, and guanine [4, 5]: ≥ 2 fold
- Log2(fold changes) 3-phosphoglycerate ([4]; metabolite 3-phosphoglycerate, log2 fold change): 0.1576
- Log2(fold changes) 4-Pyridoxic acid ([4]; metabolite 4-Pyridoxic acid, log2 fold change): 0.0000
- Log2(fold changes) 4-aminobutyrate ([4]; metabolite 4-aminobutyrate, log2 fold change): -0.0347
- Log2(fold changes) 4-phosphopantetheine ([4]; metabolite 4-phosphopantetheine, log2 fold change): 0.0000
- Log2(fold changes) 4-phosphopantothenate ([4]; metabolite 4-phosphopantothenate, log2 fold change): -0.1578
- Log2(fold changes) 5-aminopentanoic acid ([4]; metabolite 5-aminopentanoic acid, log2 fold change): 0.0000
- Log2(fold changes) 5-methyl-THF ([4]; metabolite 5-methyl-THF, log2 fold change): 0.0000
- Log2(fold changes) 5-phosphoribosyl-1-pyrophosphate ([4]; metabolite 5-phosphoribosyl-1-pyrophosphate, log2 fold change): 0.2840
- Log2(fold changes) 6-phospho-D-gluconate ([4]; metabolite 6-phospho-D-gluconate, log2 fold change): 0.0537
- Log2(fold change) HVDD ([4]; metabolite HVDD): 0.0000
- Log2(fold change) Hydroxyisocaproic acid ([4]; metabolite Hydroxyisocaproic acid): 0.0000
- Log2(fold change) IDP ([4]; metabolite IDP): -0.0045
- Log2(fold change) IMP ([4]; metabolite IMP): -0.1159
- Log2(fold change) Inositol ([4]; metabolite Inositol): 0.0000
- Log2(fold change) Isopentyl-PP ([4]; metabolite Isopentyl-PP): 0.0000
- Log2(fold change) L-arginino-succinate ([4]; metabolite L-arginino-succinate): 0.0000
- Log2(fold change) LD ([4]; metabolite LD): 0.0483
- Log2(fold change) Myristoyl/tetradecanoyl-CoA ([4]; metabolite Myristoyl/tetradecanoyl-CoA): 0.0000
- Log2(fold change) N-Acetyl-L-alanine ([4]; metabolite N-Acetyl-L-alanine): -0.2552
- Log2(fold change) N-acetyl-L-ornithine ([4]; metabolite N-acetyl-L-ornithine): -0.0188
- Log2(fold change) N-acetyl-glucosamine-1/6-phosphate ([4]; metabolite N-acetyl-glucosamine-1/6-phosphate): -0.1206
- Log2(fold change) N-acetyl-glutamate ([4]; metabolite N-acetyl-glutamate): -0.0276
- Log2(fold change) N-acetyl-glutamine ([4]; metabolite N-acetyl-glutamine): 0.0000
- Log2(fold change) N-carbamoyl-L-aspartate ([4]; metabolite N-carbamoyl-L-aspartate): -0.1894
- Log2(fold change) NAD+ ([4]; metabolite NAD+): -0.0736
- Log2(fold change) NADH ([4]; metabolite NADH): 0.1619
- Log2(fold change) NADP+ ([4]; metabolite NADP+): 0.0160
- Log2(fold change) NADPH ([4]; metabolite NADPH): 0.1653
- Log2(fold change) O-acetyl-L-serine ([4]; metabolite O-acetyl-L-serine): 0.0000
- Log2(fold change) Octoluse 8/1P ([4]; metabolite Octoluse 8/1P): -0.0774
- Log2(fold change) Octoluse Bisphosphate ([4]; metabolite Octoluse Bisphosphate): 0.0393
- Log2(fold change) PD ([4]; metabolite PD): -0.0500
- Log2(fold change) PE ([4]; metabolite PE): 0.0291
- Log2(fold change) PEE ([4]; metabolite PEE): 0.1599
- Log2(fold change) PEEK ([4]; metabolite PEEK): 0.3927
- Log2(fold change) PVNF ([4]; metabolite PVNF): 0.0618
- Log2(fold change) Pyroglutamic acid ([4]; metabolite Pyroglutamic acid): -0.2255
- Log2(fold change) Pyrophosphate ([4]; metabolite Pyrophosphate): 0.0000
- Log2(fold change) Ribose-5-phosphate ([4]; metabolite Ribose-5-phosphate): -0.0505
- Log2(fold change) S-adenosyl-L-homocysteine ([4]; metabolite S-adenosyl-L-homocysteine): -0.1747
- Log2(fold change) S-adenosyl-L-methioninamine ([4]; metabolite S-adenosyl-L-methioninamine): 0.0000
- Log2(fold change) S-adenosyl-L-methionine ([4]; metabolite S-adenosyl-L-methionine): 0.0000
- Log2(fold change) S-methyl-5'-thioadenosine ([4]; metabolite S-methyl-5'-thioadenosine): -5.54e-5
- Log2(fold change) SD ([4]; metabolite SD): 0.0815
- Log2(fold change) SDL ([4]; metabolite SDL): 0.0000
- Log2(fold change) SID ([4]; metabolite SID): 0.0000
- Log2(fold change) Sedoheptulose bisphosphate ([4]; metabolite Sedoheptulose bisphosphate): 0.2230
- Log2(fold change) Thiamine pyrophosphate ([4]; metabolite Thiamine pyrophosphate): -0.1023
- Log2(fold changes) UDP-D-glucose ([4]; metabolite UDP-D-glucose, log2 fold change): -0.0097
- Log2(fold changes) UDP-D-glucuronate ([4]; metabolite UDP-D-glucuronate, log2 fold change): 0.0081
- Log2(fold changes) UDP-N-acetyl-glucosamine ([4]; metabolite UDP-N-acetyl-glucosamine, log2 fold change): -0.0956
- Log2(fold changes) UDP ([4]; metabolite UDP, log2 fold change): -0.8655
- Log2(fold changes) UMP ([4]; metabolite UMP, log2 fold change): -0.2304
- Log2(fold changes) UTP ([4]; metabolite UTP, log2 fold change): 0.0058
- Log2(fold change) hydroxyphenylpyruvate ([4]; metabolite hydroxyphenylpyruvate): 0.0000
- Log2(fold change) hydroxyproline/Aminolevulinate ([4]; metabolite hydroxyproline/Aminolevulinate): 0.0000
- Log2(fold change) hypoxanthine ([4]; metabolite hypoxanthine): 0.0000
- Log2(fold change) indole ([4]; metabolite indole): 0.0000
- Log2(fold change) inosine ([4]; metabolite inosine): -0.3997
- Log2(fold change) isoleucine ([4]; metabolite isoleucine): 0.1103
- Log2(fold change) lactate ([4]; metabolite lactate): -0.4255
- Log2(fold change) leucine ([4]; metabolite leucine): -0.0845
- Log2(fold change) lysine ([4]; metabolite lysine): 0.0614
- Log2(fold change) malate ([4]; metabolite malate): -0.0964
- Log2(fold change) maleic acid ([4]; metabolite maleic acid): -0.0992
- Log2(fold change) methionine ([4]; metabolite methionine): 0.1002
- Log2(fold change) myo-inositol ([4]; metabolite myo-inositol): -0.6606
- Log2(fold change) nicotinamide mononucleotide ([4]; metabolite nicotinamide mononucleotide): -0.1524
- Log2(fold change) nicotinate ([4]; metabolite nicotinate): -0.4222
- Log2(fold change) ornithine ([4]; metabolite ornithine): 0.0000
- Log2(fold change) orotate ([4]; metabolite orotate): -0.5698
- Log2(fold change) orotidine-5'-phosphate ([4]; metabolite orotidine-5'-phosphate): -0.6109
- Log2(fold change) oxaloacetate ([4]; metabolite oxaloacetate): 0.0000
- Log2(fold change) p-aminobenzoate ([4]; metabolite p-aminobenzoate): 0.0000
- Log2(fold change) p-hydroxybenzoate ([4]; metabolite p-hydroxybenzoate): 0.0000
- Log2(fold change) pantothenate ([4]; metabolite pantothenate): -0.1253
- Log2(fold change) phenylalanine ([4]; metabolite phenylalanine): -0.1188
- Log2(fold change) phenylpyruvate ([4]; metabolite phenylpyruvate): 0.0000
- Log2(fold change) phosphoenolpyruvate ([4]; metabolite phosphoenolpyruvate): 0.1409
- Log2(fold change) prephenate ([4]; metabolite prephenate): 0.0000
- Log2(fold change) proline ([4]; metabolite proline): -0.1490
- Log2(fold change) pyridoxine ([4]; metabolite pyridoxine): -0.1465
- Log2(fold change) pyruvate ([4]; metabolite pyruvate): -0.2297
- Log2(fold change) riboflavin ([4]; metabolite riboflavin): 0.0675
- Log2(fold change) ribose ([4]; metabolite ribose): 0.0000
- Log2(fold change) ribose-phosphate ([4]; metabolite ribose-phosphate): -0.1362
- Log2(fold change) ribulose-5-phosphate ([4]; metabolite ribulose-5-phosphate): -0.0392
- Log2(fold change) serine ([4]; metabolite serine): 0.0266
- Log2(fold change) sn-glycerol-3-phosphate ([4]; metabolite sn-glycerol-3-phosphate): 0.0600
- Log2(fold change) succinate/Methylmalonic acid ([4]; metabolite succinate/Methylmalonic acid): 0.0813
- Log2(fold change) succinyl-CoA/methylmalonyl-CoA ([4]; metabolite succinyl-CoA/methylmalonyl-CoA): 0.0000
- Log2(fold change) taurine ([4]; metabolite taurine): 0.4424
- Log2(fold change) thiamine ([4]; metabolite thiamine): -0.0999
- Log2(fold change) threonine/homoserine ([4]; metabolite threonine/homoserine): -0.0376
- Log2(fold change) thymidine ([4]; metabolite thymidine): 0.0000
- Log2(fold changes) thymine ([4]; metabolite thymine, log2 fold change): 0.0000
- Log2(fold changes) trehalose-6-Phosphate ([4]; metabolite trehalose-6-Phosphate, log2 fold change): 0.0000
- Log2(fold changes) tryptophan ([4]; metabolite tryptophan, log2 fold change): -0.0757
- Log2(fold changes) tyrosine ([4]; metabolite tyrosine, log2 fold change): 0.0866
- Log2(fold changes) uridine ([4]; metabolite uridine, log2 fold change): -0.4854
- solubility at 1.5 h (physchem): 100 to 500 µM (≈ 53.6 to 268 µg/mL)
